How the values were obtained:
LN-229 = assay: WST-1 proliferation assay, LN-229; type: cell-based; settings: Homo sapiens
Method: 2000 cells were plated in each well of 96-well flat bottom plates, and incubated overnight at 37 °C in 5% CO2. The growth of plated cells was measured by adding […] of WST-1 reagent (Roche Applied Sciences, Germany) to 3 control wells and measuring the absorbance at 650 nm and at 450 nm, respectively, with a SpectraMax250 plate reader. If the OD650-OD450 values were above 0.5, the remainder of the plate was used for incubation with AP-121, other pharmacological agents or solvent control for 96 hours.
After this incubation, VVST-1 reagent was added to the wells and OD650-OD450 values were calculated as before. six wells were assayed for each conditions and standard deviation was determined: all experiments were performed at least three times independently. After elucidation of individual IC50 values for each compound, the simultaneous combination treatment of AP-121 and the chemotherapeutic agent at their IC50 ratio was performed; combination index (CI) was determined by Calcusyn software package (Biosoft, Ferguson, Mo.). Data were evaluated by calculating the means of the combination index (CI), where a CI of <0.3 indicates a strong synergistic effect, 0.3<CI<0.7 a synergistic effect, 0.7<CI<0.9 moderate synergy, 0.9<CI<1 additive effect and CI>1 antagonistic effect, respectively.
For the AP-121 cell proliferation drug combination measurements, the ED50 was determined for each drug. Six different concentrations of each drug were used in combinations index measurements and compared to +/− cells, and compared to controls without compound. Each combination was repeated 6 times at 2 different time points (24 and 96 hours), each of the above experiments was repeated 3 times to obtain valid results.

LNCaP cells = assay: flow cytometric analysis of annexin V-PE positive / 7-AAD negative LNCaP cells; type: cell-based, human
Method: In a further approach, 10 μM 1-O-octadecyl-2-O-methyl-glycero-3-phosphocholine (final concentration; “CHEM”) and (ionizing) radiation (5 Gray units; “RT”) were administered simultaneously to the LNCaP cells but the subsequent incubation period was extended to 24 hours. Apoptosis was measured using the Apo-ONE™ Homogenous Caspase-3/7 Assay as described above and expressed as relative fluorescence units (RFLU). The percentage of apoptotic cells was determined by flow cytometric analysis of annexin V-PE positive-stained and 7-AAD (7-Amino ActinomycinD) negative-stained cells (both purchased from BD Biosciences, San Jose, Calif., USA) according to established standard protocols. The data represent means±SEM from three independent experiments.
Next, the interaction of 1-O-octadecyl-2-O-methyl-glycero-3-phosphocholine administration (“CHEM”) and androgen deprivation (“AD”) was investigated. LNCaP cells were deprived of androgen for two days by charcoal absorption of serum according to established procedures well known in the art. CHEM was added in a final concentration of 5 μM and 10 μM, respectively.
Apoptosis was measured using the Apo-ONE™ Homogenous Caspase-3/7 Assay as described above and expressed as relative fluorescence units (RFLU). The percentage of apoptotic cells was determined via annexin V-PE/7-AAD staining as described above. The caspase-317 assay and annexin staining were performed 22 hours after CHEM treatment.

[1] = test system: LNCaP cells grown orthotopically in the prostates of nude mice; assay: LNCaP cells grown orthotopically in the prostates of nude mice (PSA, tumor volume); type: in vivo; settings: 0-30 mg/kg intraperitoneal injections and concomitant irradiation; dose-dependent effect
Method: FIG. 2. Depicts the in vivo effects of 1-O-octadecyl-2-O-methyl-glycero-3-phosphocholine (30 mg/kg body weight/day administered intraperitoneally for 15 days; FIG. 2A), (ionizing) radiation (absorbed dose of 5 Gray units administered on day 7); FIG. 2C), and a combination thereof (FIG. 2B) on LNCaP cells grown orthotopically in the prostates of nude mice (seven mice/group). Tumor growth was assessed via determining the serum level of the prostate-specific antigen (PSA) using a commercially available test kit as well as the tumor volume by means of magnetic resonance imaging. Graphed lines show tumor size in individual mice.
It is known that prostate cancer cell lines express FAS receptor, that some of them are not sensitive to FAS (O. W. Rokhlin et al., Cancer Res. 1997, 57: 1758-68). […]
1-O-octadecyl-2-O-methyl-glycero-3-phosphocholine was administered intraperitoneally in a dose of 30 mg/kg body weight/day administered intraperitoneally for 15 days (FIG. 2A; studies using different routes of administration such as orally or by gavage are currently under way). […] Tumor growth was assessed via determining the serum level of the prostate-specific antigen (PSA) using a commercially available test kit as well as the tumor volume by means of magnetic resonance imaging.

CCCCCCCCCCCCCCCCCCOCC(COP(=O)([O-])OCC[N+](C)(C)C)OC (racemic) [AP-121, 1-O-octadecyl-2-O-methyl-glycero-3-phosphocholine]
IC50 (LN-229): 4.3 µM
% Annexin V-PE pos. cells (LNCaP cells; AD (androgen deprivation, two days) + 5 μM CHEM, AD alone 12.6): 15.4%
% Annexin V-PE pos. cells (LNCaP cells; AD + 10 μM CHEM): 27.4%
% Annexin V-PE pos. cells (LNCaP cells; AD + R1881 (two days prior) + 5 μM CHEM): 14.6%
% Annexin V-PE pos. cells (LNCaP cells; AD + R1881 (two days prior) + 10 μM CHEM): 21.6%
% Annexin V-PE pos. cells (LNCaP cells; CHEM 10 μM + RT 5 Gray simultaneously, 24 hours, means±SEM, p < 0.0001 vs CHEM and RT): 31.7 ± 1.0 %
% Annexin V-PE pos. cells (LNCaP cells; CHEM 10 μM alone, 24 hours, means±SEM, three experiments, Control 3.6 ± 0.2): 18.6 ± 1.0%
% Annexin V-PE pos. cells (LNCaP cells; Contr. + 5 μM CHEM, 22 hours after CHEM, Contr. 9.6): 13.0%
% Annexin V-PE pos. cells (LNCaP cells; Contr. + 10 μM CHEM, 22 hours after CHEM): 17.5%
apoptotic response (LNCaP cells; androgen-deprived LNCaP cells, 5 and 10 μM, not reversed by synthetic androgen): dose-dependent significant increase
PSA (prostate specific antigen) levels [1]: reduced after few days of treatment
tumor size [1]: shrinkage of the tumor size after one week of treatment
